Reference: patent publication US7550426B2, “Acetylated therapeutic procytotoxins” (GHC Research Development Corporation, priority 2005, dated 2009)

Experiments:
[1] = biological target: prostate specific membrane antigen (human) (UniProt Q04609)
nucleated cells = conditions: high concentrations; cited from earlier work
LNCaP cells = experiment: In vitro lysis of LNCaP cells measured by LDH release; assay type: cell-based, human; conditions: concentration 160 μM
Procedure: Prior to tumor injection, in vitro studies are conducted to check the activity of the acetylated and non-acetylated procytotoxin, and to check the activity of the LNCaP cells for their ability to secrete PSA. Peptide activity is checked by a LDH Cytotoxicity Detection Kit (Roche).
Non-acetylated γ-glutamate-masked amoebapore (a modified cytotoxin comprising one or more γ-linked glutamate residues linked via a peptide bond to the epsilon amino group of at least one lysine, preferably the C-terminal-most lysine), and acetylated γ-glutamate-masked amoebapore are compared in vitro for their ability to lyse LNCaP cells, as measured by percent lactic acid dehydrogenase (LDH) release.

[2] = Mouse weight after 7 weeks of intraperitoneal injection in mouse model for prostate cancer; assay type: in vivo; conditions: nude mice with LNCaP tumor; following 7 weeks of intraperitoneal injection; compared to control animals
Procedure: (§1) 20 nude mice are injected subcutaneously (right flank) with 0.5 ml of a 4 million cell/ml suspension (50% PBS 50% high concentration matrigel). Each mouse receives approximately 2 million cells. The mice are male, approximately 12 weeks of age and of the nude BalbC background.
(§2) 5 days following LNCaP tumor inoculation, mice are injected with an acetylated γ-glutamate-masked amoebapore, a non-acetylated γ-glutamate-masked amoebapore, and a control. Six control mice are injected with 200 μl of PBS and the remaining 14 mice are injected with 200 μl of a 1 mg/ml solution of either the acetylated or non-acetylated γ-glutamate-masked amoebapore peptide (i.e., 200 μg peptide per injection). Mice are injected intraperitoneally, twice per week. PSA levels are measured after three, five, and seven weeks of treatment. Lower PSA levels relative to control provide an objective indication that the procytotoxin is converted to its cytotoxic form and is able to lyse a target cell.
Additionally, mice are weighed following 7 weeks of intraperitoneal injection of a non-acetylated procytotoxin or an acetylated procytoxin in a mouse model for prostate cancer. […] Cachexia is a profound and marked state of constitutional disorder, representing general ill health. It is sometimes associated with an emaciated condition, such as cancerous cachexia seen in cases of a malignant tumor. […]

LNCaP tumor = experiment: Plasma PSA levels in mouse model for human prostate cancer (LNCaP tumor), intraperitoneal treatment; assay type: in vivo; conditions: nude mice with LNCaP tumor; 200 μg peptide per injection, intraperitoneally, twice per week; PSA measured after three, five and seven weeks
Procedure: LNCaP cells lot #3475262 (Catalog # CRL-1740) are received from ATCC, quickly thawed at 37° C. and placed in culture immediately. Cells are cultured in RPMI media (supplemented with 10% FBS, 50,000 units of Penicillin and 50,000 ug Streptomycin) and grown at 37° C. in the presence of 5% CO2. Cells are passed when approximately 80% confluent until there are enough cells to do the in vivo studies.
as §1, §2

Work on “non-acetylated γ-glutamate-masked amoebapore (peptide)” yielded a % LDH Release (% LDH Release) [1] of 38.5.
“acetylated γ-glutamate-masked amoebapore (peptide)” gave a % LDH Release (% LDH Release) [1] of 29.9.
For “NH2-Gly-Phe-Ile-Ala-Thr-Leu-Cys-Thr-Lys-Val-Leu-Asp-Phe-Gly-Ile-Asp-Lys-Leu-Ile-Gln-Leu-Ile-Glu-Asp-Lys-CONH2 (H-GFIATLCTKVLDFGIDKLIQLIEDK-NH2; listed as Entamoeba histolytica) [Amoebapore Helix 3, parent cytolytic peptide from Entamoeba histolytica amoebapore, third helix]”, the “concentrations with cytolytic activity for nucleated cells” value (nucleated cells) is given as 10 to 100 µM.
For `CC(=O)NC(CCC(=O)NC(CCC(=O)NCCCCC(N)C(N)=O)C(=O)O)C(=O)O` (stereo not drawn) [Acetylated procytotoxin], the “% LDH Release” value (LNCaP cells) was 29.94%, the weight loss [2] was “experienced the least weight loss” and the “plasma PSA levels compared to control” value (LNCaP tumor) was “lowered PSA levels to a greater extent”.
